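Assay format: 96-well plates, 48-hour exposure. TGI marks complete inhibition of growth.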
Legend:
Experiment in all cases: NCI tumour cell line growth inhibition, 48 h
HT29 colon = system: HT29 colon
SN12C renal = system: SN12C renal
A498 renal = system: A498 renal
EKVX NSCLC = system: EKVX NSCLC
UACC-257 melanoma = system: UACC-257 melanoma
A549 NSCLC = system: A549 NSCLC
NCI-H522 lung = system: NCI-H522 lung
MDA-N = system: MDA-N
MDA-MB-231 breast = system: MDA-MB-231 breast
HCC-2998 colon = system: HCC-2998 colon
SK-MEL-28 melanoma = system: SK-MEL-28 melanoma
CCRF-CEM leukemia = system: CCRF-CEM leukemia
NCI-H460 lung = system: NCI-H460 lung
OVCAR-5 ovarian = system: OVCAR-5 ovarian
RPMI-8226 leukemia = system: RPMI-8226 leukemia
NCI/ADR-RES ovarian = system: NCI/ADR-RES ovarian
MOLT-4 leukemia = system: MOLT-4 leukemia
OVCAR-4 ovarian = system: OVCAR-4 ovarian
HCT-15 colon = system: HCT-15 colon
MDA-MB-435 = system: MDA-MB-435

SMILES | TGI (HT29 colon) [µM] | TGI (SN12C renal) [µM] | TGI (A498 renal) [µM] | TGI (EKVX NSCLC) [µM] | TGI (UACC-257 melanoma) [µM] | TGI (A549 NSCLC) [µM] | TGI (NCI-H522 lung) [µM] | TGI (MDA-N) [µM] | TGI (MDA-MB-231 breast) [µM] | TGI (HCC-2998 colon) [µM] | TGI (SK-MEL-28 melanoma) [µM] | TGI (CCRF-CEM leukemia) [µM] | TGI (NCI-H460 lung) [µM] | TGI (OVCAR-5 ovarian) [µM] | TGI (RPMI-8226 leukemia) [µM] | TGI (NCI/ADR-RES ovarian) [µM] | TGI (MOLT-4 leukemia) [µM] | TGI (OVCAR-4 ovarian) [µM] | TGI (HCT-15 colon) [µM] | TGI (MDA-MB-435) [µM]
NC(Cc1ccc(S(=O)(=O)O)cc1)C(=O)NC(Cc1ccc(S(=O)(=O)O)cc1)C(=O)NC(Cc1ccc(S(=O)(=O)O)cc1)C(=O)O (centres undefined) | > 100 | > 100 | > 100 | > 100 | > 100 | > 100 | > 100 | > 100 | > 100 | > 100 | > 100 | > 100 | > 100 | > 100 | > 100 | > 100 | > 100 | > 100 | > 100 | > 100
C=CC(Br)(CBr)CCC(Br)C(C)(C)Cl (centres undefined) | 2.9 | 16.5 | 9.46 | 26.8 | 10.6 | 28.6 | 2.79 | 8.34 | 6.95 | 12.8 | 6 | 7.45 | 6.06 | 14.5 | 2.31 | 18.6 | 4.05 | 10.4 | 6.53 | 5.82
COC1=CC(=O)c2c(c(COP(=O)(N(C)CCBr)N(C)CCBr)cn2C)C1=O | 0.222 | 0.371 | 0.964 | 0.578 | 1.2 | 0.659 | 0.374 | 0.274 | 1.07 | 0.192 | 0.33 | 1.78 | 0.983 | 0.564 | 0.441 | 1.71 | > 100 | 3 | 0.193 | 0.222
CC(C)(C)OC(=O)c1ccc(NCC2=CC(=O)C=CC2=O)cc1 | 35 | 23.8 | 30.9 | 28.8 | 24.9 | 40.1 | 3.1 | 25.3 | 21.6 | 36.6 | 29.2 | 5.35 | > 59.5 | 32.5 | > 27.1 | 28.2 | 4.38 | 22 | 20.5 | 25.9
CC1(C)C2CC3C4CC5(Nc6ccccc6C5N41)[C@]3(C)CC2=O (some centres undefined) | > 50 | > 50 | > 50 | > 50 | > 50 | > 50 | > 50 | > 50 | > 50 | > 50 | > 50 | > 50 | > 50 | > 50 | > 50 | > 50 | > 50 | > 50 | > 50 | > 50
O=C(Cc1nc2ncccc2[nH]c1=O)c1c[nH]c2ccccc12 | 60.9 | 35.9 | 31.7 | 56.9 | 36.1 | 47.8 | 35.4 | 45.4 | 35.3 | 34.6 | 32.8 | 40.3 | 34.4 | 59.2 | 91.8 | > 100 | 94.8 |  | 95.8 | 30.7
